Read-outs that look alike come from different tables or passages of the source.
Target: T1, BRAF V600E (Homo sapiens, UniProt P15056+Q96SW2, V600E)
T1 construct: knock-in of the HiBiT tag to the endogenous BRAF V600E locus; host or cells: A375.10 (A375 clonal line, CRISPR HiBiT knock-in at the endogenous BRAF V600E locus)
Experiment: BRAF V600E HiBiT Degradation Assay
Assay type: cell-based
Summary of the method: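 Endogenous HiBiT knock-in on BRAF V600E in A375 cells (clone A375.10); 11-point half-log series, top 10 μM, 2, 6 or 24 h at 37° C. Lytic HiBiT luminescence, background-subtracted, normalized to DMSO; 4-parameter fit gives DC50, Emax (residual protein) and IP (inflection point).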

[1] = A375.10 cells, BRAF V600E, 2 hours, inflection point, read-out: HiBiT-Degradation A375.10 BRAF 2 hours IP
[2] = A375.10 cells, BRAF V600E, 2 hours, read-out: HiBiT-Degradation A375.10 BRAF 2 hours DC50
[3] = A375.10 cells, BRAF V600E, 6 hours, inflection point, read-out: HiBiT-Degradation A375.10 BRAF 6 hours IP
[4] = A375.10 cells, BRAF V600E, 6 hours, read-out: HiBiT-Degradation A375.10 BRAF 6 hours DC50
[5] = A375.10 cells, BRAF V600E, 6 hours, residual protein remaining, read-out: HiBiT-Degradation A375.10 BRAF 6 hours Emax
[6] = A375.10 cells, HiBiT, BRAF V600E, 24 hours, read-out: HiBiT-Degradation A375.10 BRAF 24 hours DC50
[7] = A375.10 cells, HiBiT, BRAF V600E, 24 hours, read-out: HiBiT-Degradation A375.10 BRAF 24 hours Emax
[8] = A375.10 cells, HiBiT, BRAF V600E, 24 hours, read-out: HiBiT-Degradation A375.10 BRAF 24 hours IP
[9] = read-out: HiBiT-Degradation A375.10 BRAF 2 hours Emax, A375.10 cells, BRAF V600E, 2 hours, residual protein remaining
[10] = read-out: HiBiT-Degradation A375.10 BRAF 2 hours DC50, A375.10 cells, BRAF V600E, 2 hours
[11] = read-out: HiBiT-Degradation A375.10 BRAF 2 hours IP, A375.10 cells, BRAF V600E, 2 hours, inflection point
[12] = read-out: HiBiT-Degradation A375.10 BRAF 6 hours DC50, A375.10 cells, BRAF V600E, 6 hours
[13] = read-out: HiBiT-Degradation A375.10 BRAF 6 hours IP, A375.10 cells, BRAF V600E, 6 hours, inflection point
[14] = read-out: HiBiT-Degradation A375.10 BRAF 24 hours DC50, A375.10 cells, HiBiT, BRAF V600E, 24 hours
[15] = read-out: HiBiT-Degradation A375.10 BRAF 24 hours IP, A375.10 cells, HiBiT, BRAF V600E, 24 hours

T1 sequence (P15056 whole entry V600E): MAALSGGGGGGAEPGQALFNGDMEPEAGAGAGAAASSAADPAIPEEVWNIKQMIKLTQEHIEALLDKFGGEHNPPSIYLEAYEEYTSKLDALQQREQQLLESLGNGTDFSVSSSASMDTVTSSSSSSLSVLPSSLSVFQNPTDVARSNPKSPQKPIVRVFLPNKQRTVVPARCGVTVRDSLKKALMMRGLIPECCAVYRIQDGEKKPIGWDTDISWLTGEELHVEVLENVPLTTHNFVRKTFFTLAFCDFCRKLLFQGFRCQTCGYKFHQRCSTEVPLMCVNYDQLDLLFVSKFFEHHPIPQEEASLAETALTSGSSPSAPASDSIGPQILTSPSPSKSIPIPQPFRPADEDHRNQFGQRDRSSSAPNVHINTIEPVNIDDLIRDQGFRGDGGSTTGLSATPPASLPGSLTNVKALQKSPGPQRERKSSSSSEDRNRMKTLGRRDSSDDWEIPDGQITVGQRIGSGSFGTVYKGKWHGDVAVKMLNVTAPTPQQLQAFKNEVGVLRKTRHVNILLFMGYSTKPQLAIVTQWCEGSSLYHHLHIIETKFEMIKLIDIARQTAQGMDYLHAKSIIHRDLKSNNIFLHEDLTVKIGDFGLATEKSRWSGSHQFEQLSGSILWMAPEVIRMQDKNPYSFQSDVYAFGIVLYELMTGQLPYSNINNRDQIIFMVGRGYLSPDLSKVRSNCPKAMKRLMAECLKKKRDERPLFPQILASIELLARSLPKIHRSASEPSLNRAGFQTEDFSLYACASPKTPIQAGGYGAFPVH
T1 sequence (Q96SW2 whole entry): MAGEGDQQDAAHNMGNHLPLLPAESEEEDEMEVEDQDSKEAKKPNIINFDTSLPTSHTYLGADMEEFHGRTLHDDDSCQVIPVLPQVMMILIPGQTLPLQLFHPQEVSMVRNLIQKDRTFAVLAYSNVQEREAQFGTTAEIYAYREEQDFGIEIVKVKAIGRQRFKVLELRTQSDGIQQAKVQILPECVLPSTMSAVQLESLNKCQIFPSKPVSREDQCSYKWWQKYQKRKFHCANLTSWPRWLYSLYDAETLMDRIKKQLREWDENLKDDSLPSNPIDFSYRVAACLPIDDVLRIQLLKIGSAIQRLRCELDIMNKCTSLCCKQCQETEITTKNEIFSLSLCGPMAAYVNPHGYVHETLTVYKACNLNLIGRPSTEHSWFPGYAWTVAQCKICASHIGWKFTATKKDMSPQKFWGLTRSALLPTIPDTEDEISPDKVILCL
T1 sequence (Q16531 whole entry partner): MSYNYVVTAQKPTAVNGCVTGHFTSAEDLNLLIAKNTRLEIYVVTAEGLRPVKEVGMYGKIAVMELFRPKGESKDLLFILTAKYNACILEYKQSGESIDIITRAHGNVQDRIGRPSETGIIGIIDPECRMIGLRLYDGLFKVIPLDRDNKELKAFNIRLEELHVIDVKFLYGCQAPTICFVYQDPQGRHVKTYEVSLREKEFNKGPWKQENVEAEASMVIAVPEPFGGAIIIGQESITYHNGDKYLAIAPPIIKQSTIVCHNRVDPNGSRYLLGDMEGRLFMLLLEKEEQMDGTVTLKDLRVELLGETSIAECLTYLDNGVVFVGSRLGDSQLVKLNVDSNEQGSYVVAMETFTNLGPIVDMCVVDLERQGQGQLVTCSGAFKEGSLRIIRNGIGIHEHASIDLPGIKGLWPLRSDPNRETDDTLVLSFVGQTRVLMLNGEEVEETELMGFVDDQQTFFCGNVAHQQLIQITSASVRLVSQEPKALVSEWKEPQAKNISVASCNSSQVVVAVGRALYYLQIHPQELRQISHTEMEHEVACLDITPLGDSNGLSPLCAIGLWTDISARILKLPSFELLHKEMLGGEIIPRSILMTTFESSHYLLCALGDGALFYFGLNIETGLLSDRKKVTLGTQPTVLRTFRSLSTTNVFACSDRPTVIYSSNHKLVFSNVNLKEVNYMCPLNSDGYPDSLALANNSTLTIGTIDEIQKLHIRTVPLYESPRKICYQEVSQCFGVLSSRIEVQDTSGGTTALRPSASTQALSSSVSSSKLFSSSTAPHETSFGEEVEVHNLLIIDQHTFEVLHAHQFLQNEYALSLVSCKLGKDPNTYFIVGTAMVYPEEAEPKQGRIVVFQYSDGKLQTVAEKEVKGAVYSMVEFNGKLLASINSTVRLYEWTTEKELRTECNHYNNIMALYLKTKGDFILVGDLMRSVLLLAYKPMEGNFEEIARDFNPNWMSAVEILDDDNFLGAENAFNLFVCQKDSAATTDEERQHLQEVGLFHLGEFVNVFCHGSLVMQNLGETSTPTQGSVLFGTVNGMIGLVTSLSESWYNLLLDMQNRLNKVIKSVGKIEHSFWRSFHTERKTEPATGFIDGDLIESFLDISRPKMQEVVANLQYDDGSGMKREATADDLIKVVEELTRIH

DC50 [1]	DC50 [2]	DC50 [3]	DC50 [4]	Emax [5]	DC50 [6]	Emax [7]	DC50 [8]	Emax [9]	DC50 [10]	DC50 [11]	DC50 [12]	DC50 [13]	DC50 [14]	DC50 [15]	Emax (A375.10 cells, BRAF V600E, 2 hours, residual protein remaining, read-out: HiBiT-Degradation A375.10 BRAF 2 hours Emax)	SMILES
–	–	–	–	< 50%	–	< 50%	–	50 to 90%	1000 to 10000 nM	< 1000 nM	< 1000 nM	< 1000 nM	< 1000 nM	< 1000 nM	–	CO[C@@H]1CCN(S(=O)(=O)Nc2ccc(F)c(Oc3ccc4ncn([C@H]5COC6(CCN(C7CC8(C7)CN(c7cc9c(cc7F)c(N7CCC(=O)NC7=O)nn9C)C8)CC6)C5)c(=O)c4c3)c2C#N)C1 [Compound 144, (3R)-N-[2-cyano-3-[3-[(3R)-8-[2-[3-(2,4-dioxohexahydropyrimidin-1-yl)-5-fluoro-1-methyl-indazol-6-yl]-2-azaspiro[3.3]heptan-6-yl]-1-oxa-8-azaspiro[4.5]decan-3-yl]-4-oxo-quinazolin-6-yl]oxy-4-fluoro-phenyl]-3-methoxy-pyrrolidine-1-sulfonamide]
–	–	–	–	< 50%	–	< 50%	–	–	1000 to 10000 nM	< 1000 nM	< 1000 nM	< 1000 nM	< 1000 nM	< 1000 nM	50 to 90%	CN(CCO)S(=O)(=O)Nc1ccc(F)c(Oc2ccc3ncn(C4CC5(CCN(C6CC7(C6)CN(c6cc8c(cc6F)c(N6CCC(=O)NC6=O)nn8C)C7)CC5)C4)c(=O)c3c2)c1C#N (stereo not drawn) [Compound 151, 6-[2-cyano-6-fluoro-3-[[2-hydroxyethyl(methyl)sulfamoyl]amino]phenoxy]-3-[7-[2-[3-(2,4-dioxohexahydropyrimidin-1-yl)-5-fluoro-1-methyl-indazol-6-yl]-2-azaspiro[3.3]heptan-6-yl]-7-azaspiro[3.5]nonan-2-yl]-4-oxo-quinazoline]
< 1000 nM	< 1000 nM	< 1000 nM	< 1000 nM	< 50%	< 1000 nM	< 50%	< 1000 nM	< 50%	–	–	–	–	–	–	–	CCN(C)S(=O)(=O)Nc1ccc(F)c(Oc2ccc3ncn(C4CC5(CCN(C6CCN(c7cc8c(cc7F)c(N7CCC(=O)NC7=O)nn8C)CC6)CC5)C4)c(=O)c3c2)c1C#N [Compound 156, 6-[2-cyano-3-[[ethyl(methyl)sulfamoyl]amino]-6-fluoro-phenoxy]-3-[7-[1-[3-(2,4-dioxohexahydropyrimidin-1-yl)-5-fluoro-1-methyl-indazol-6-yl]-4-piperidyl]-7-azaspiro[3.5]nonan-2-yl]-4-oxo-quinazoline]
< 1000 nM	< 1000 nM	< 1000 nM	< 1000 nM	< 50%	< 1000 nM	< 50%	< 1000 nM	50 to 90%	–	–	–	–	–	–	–	CO[C@H]1CCN(S(=O)(=O)Nc2ccc(F)c(Oc3ccc4ncn([C@H]5COC6(CCN(C7CC8(C7)CN(c7cc9c(cc7F)c(N7CCC(=O)NC7=O)nn9C)C8)CC6)C5)c(=O)c4c3)c2C#N)C1 [Compound 157, (3S)-N-[2-cyano-3-[3-[(3R)-8-[2-[3-(2,4-dioxohexahydropyrimidin-1-yl)-5-fluoro-1-methyl-indazol-6-yl]-2-azaspiro[3.3]heptan-6-yl]-1-oxa-8-azaspiro[4.5]decan-3-yl]-4-oxo-quinazolin-6-yl]oxy-4-fluoro-phenyl]-3-methoxy-pyrrolidine-1-sulfonamide]
< 1000 nM	1000 to 10000 nM	–	–	–	–	–	–	50 to 90%	–	–	–	–	–	–	–	CCN(C)S(=O)(=O)Nc1ccc(F)c(Oc2ccc3ncc([C@H]4COC5(CCN(C6CC7(C6)CN(c6cc8c(cc6F)c(N6CCC(=O)NC6=O)nn8C)C7)CC5)C4)nc3c2)c1C#N [Compound 158, (3S)-3-[7-[2-cyano-3-[[ethyl(methyl)sulfamoyl]amino]-6-fluoro-phenoxy]quinoxalin-2-yl]-8-[2-[3-(2,4-dioxohexahydropyrimidin-1-yl)-5-fluoro-1-methyl-indazol-6-yl]-2-azaspiro[3.3]heptan-6-yl]-1-oxa-8-azaspiro[4.5]decane]
< 1000 nM	< 1000 nM	< 1000 nM	< 1000 nM	< 50%	< 1000 nM	< 50%	< 1000 nM	< 50%	–	–	–	–	–	–	–	CCN(C)S(=O)(=O)Nc1ccc(F)c(Oc2ccc3ncc(C4CC5(CCN(C6CC7(C6)CN(c6cc8c(cc6F)c(N6CCC(=O)NC6=O)nn8C)C7)CC5)C4)nc3c2)c1C#N (stereo not drawn) [Compound 177, 7-[2-cyano-3-[[ethyl(methyl)sulfamoyl]amino]-6-fluoro-phenoxy]-2-[7-[2-[3-(2,4-dioxohexahydropyrimidin-1-yl)-5-fluoro-1-methyl-indazol-6-yl]-2-azaspiro[3.3]heptan-6-yl]-7-azaspiro[3.5]nonan-2-yl]quinoxaline]
< 1000 nM	< 1000 nM	–	–	–	< 1000 nM	< 50%	< 1000 nM	< 50%	–	–	–	–	–	–	–	CCN(C)S(=O)(=O)Nc1ccc(F)c(Oc2ccc3ncn(C4CC5(CCN(C6CC7(CCN(c8cc9c(cc8F)c(N8CCC(=O)NC8=O)nn9C)CC7)C6)CC5)C4)c(=O)c3c2)c1C#N (stereo not drawn) [Compound 198, 6-[2-cyano-3-[[ethyl(methyl)sulfamoyl]amino]-6-fluoro-phenoxy]-3-[7-[7-[3-(2,4-dioxohexahydropyrimidin-1-yl)-5-fluoro-1-methyl-indazol-6-yl]-7-azaspiro[3.5]nonan-2-yl]-7-azaspiro[3.5]nonan-2-yl]-4-oxo-quinazoline]
–	–	–	–	–	–	–	–	50 to 90%	1000 to 10000 nM	< 1000 nM	–	–	–	–	–	COC1CN(S(=O)(=O)Nc2ccc(F)c(Oc3ccc4ncn([C@H]5COC6(CCN(C7CC8(C7)CN(c7cc9c(cc7F)c(N7CCC(=O)NC7=O)nn9C)C8)CC6)C5)c(=O)c4c3)c2C#N)C1 [Compound 246, N-[2-cyano-3-[3-[(3R)-8-[2-[3-(2,4-dioxohexahydropyrimidin-1-yl)-5-fluoro-1-methyl-indazol-6-yl]-2-azaspiro[3.3]heptan-6-yl]-1-oxa-8-azaspiro[4.5]decan-3-yl]-4-oxo-quinazolin-6-yl]oxy-4-fluoro-phenyl]-3-methoxy-azetidine-1-sulfonamide]
< 1000 nM	< 1000 nM	–	–	–	–	–	–	< 50%	–	–	–	–	–	–	–	Cn1nc(N2CCC(=O)NC2=O)c2cc(F)c(N3CC4(CC(N5CCC6(CC5)CC(n5cnc7ccc(Oc8c(F)ccc(NS(=O)(=O)C9CCCC9)c8C#N)cc7c5=O)C6)C4)C3)cc21 [Compound 250, N-[2-cyano-3-[3-[7-[2-[3-(2,4-dioxohexahydropyrimidin-1-yl)-5-fluoro-1-methyl-indazol-6-yl]-2-azaspiro[3.3]heptan-6-yl]-7-azaspiro[3.5]nonan-2-yl]-4-oxo-quinazolin-6-yl]oxy-4-fluoro-phenyl]cyclopentanesulfonamide]
< 1000 nM	< 1000 nM	–	–	–	–	–	–	50 to 90%	–	–	–	–	–	–	–	Cn1nc(N2CCC(=O)NC2=O)c2cc(F)c(N3CC4(CC(N5CCC6(CC5)C[C@@H](n5cnc7ccc(Oc8c(F)ccc(NS(=O)(=O)N9CC%10(CCC%10)C9)c8C#N)cc7c5=O)CO6)C4)C3)cc21 [Compound 254, N-[2-cyano-3-[3-[(3R)-8-[2-[3-(2,4-dioxohexahydropyrimidin-1-yl)-5-fluoro-1-methyl-indazol-6-yl]-2-azaspiro[3.3]heptan-6-yl]-1-oxa-8-azaspiro[4.5]decan-3-yl]-4-oxo-quinazolin-6-yl]oxy-4-fluoro-phenyl]-2-azaspiro[3.3]heptane-2-sulfonamide]

SMILES	DC50 [1]	DC50 [2]	DC50 [3]	DC50 [4]	Emax [5]	DC50 [6]	Emax [7]	DC50 [8]	Emax [9]	DC50 [10]	DC50 [11]	DC50 [12]	DC50 [13]	DC50 [14]	DC50 [15]	Emax (A375.10 cells, BRAF V600E, 2 hours, residual protein remaining, read-out: HiBiT-Degradation A375.10 BRAF 2 hours Emax)
CCN(C)S(=O)(=O)Nc1ccc(F)c(Oc2ccc3ncn(C4CC5(CCN(C6CC7(C6)CN(c6cc8c(cc6F)c(N6CCC(=O)NC6=O)nn8C)C7)CC5)C4)c(=O)c3c2)c1C#N (stereo not drawn) [Compound 141, 6-[2-cyano-3-[[ethyl(methyl)sulfamoyl]amino]-6-fluoro-phenoxy]-3-[7-[2-[3-(2,4-dioxohexahydropyrimidin-1-yl)-5-fluoro-1-methyl-indazol-6-yl]-2-azaspiro[3.3]heptan-6-yl]-7-azaspiro[3.5]nonan-2-yl]-4-oxo-quinazoline]	< 1000 nM	< 1000 nM	< 1000 nM	< 1000 nM	< 50%	< 1000 nM	< 50%	< 1000 nM	< 50%	–	–	–	–	–	–	–

Source: patent US20260297060A1, “COMPOUNDS FOR THE DEGRADATION OF MUTANT BRAF” (C4 THERAPEUTICS, INC., priority 2023, published 2026)
